Data from ChEMBL document CHEMBL1129922, “Preparation and antibacterial activity of pyridopyridone analogs: C-1 modifications” (1997).
≈ marks a conversion by molar mass, not a printed value.

How the values were obtained:
Type in all cases: functional
Streptococcus pyogenes = assay: In vitro antibacterial activity against Streptococcus pyogenes 930 organism, activity expressed as minimum inhibitory concentration (MIC)
Staphylococcus aureus [1] = assay: In vitro antibacterial activity against Staphylococcus aureus NCTC 10649M organism expressed as minimum inhibitory concentration (MIC)
Enterococcus faecium = assay: In vitro antibacterial activity against Enterococcus faecium ATCC 8043 organism, activity expressed as minimum inhibitory concentration (MIC)
Pseudomonas aeruginosa = assay: In vitro antibacterial activity against Pseudomonas aeruginosa K799/WT organism, activity expressed as minimum inhibitory concentration (MIC)
Staphylococcus aureus [2] = assay: In vitro antibacterial activity against Staphylococcus aureus 1775 organism expressed as minimum inhibitory concentration (MIC)
Escherichia coli = assay: In vitro antibacterial activity against Escherichia coli juhl organism, activity expressed as minimum inhibitory concentration (MIC)

SMILES	MIC (Streptococcus pyogenes) [µg/mL]	MIC (Staphylococcus aureus [1]) [µg/mL]	MIC (Enterococcus faecium) [µg/mL]	MIC (Pseudomonas aeruginosa) [µg/mL]	MIC (Staphylococcus aureus [2]) [µg/mL]	MIC (Escherichia coli) [µg/mL]
CCC(C)c1cc(C(=O)O)c(=O)n2cc(F)c(N3CC[C@H](N)C3)c(C)c12 (stereo not given in full)	50 (≈ 138 µM)	6.2 (≈ 17.2 µM)	12.5 (≈ 34.6 µM)	50 (≈ 138 µM)	> 100	1.56 (≈ 4.32 µM)
Cc1c(N2CC[C@H](N)C2)c(F)cn2c(=O)c(C(=O)O)ccc12	12.5 (≈ 40.9 µM)	3.1 (≈ 10.2 µM)	25 (≈ 81.9 µM)	6.2 (≈ 20.3 µM)	> 100	0.39 (≈ 1.28 µM)
Cc1c(N2CC[C@H](N)C2)c(F)cn2c(=O)c(C(=O)O)cc(CC(C)(C)C)c12	3.1 (≈ 8.26 µM)	1.56 (≈ 4.16 µM)	6.2 (≈ 16.5 µM)	12.5 (≈ 33.3 µM)	50 (≈ 133 µM)	
Cc1c(N2CC[C@H](N)C2)c(F)cn2c(=O)c(C(=O)O)cc(CC3CC3)c12	6.2 (≈ 17.3 µM)	1.56 (≈ 4.34 µM)	6.2 (≈ 17.3 µM)	12.5 (≈ 34.8 µM)	25 (≈ 69.6 µM)	0.78 (≈ 2.17 µM)
Cc1c(N2CC[C@H](N)C2)c(F)cn2c(=O)c(C(=O)O)cc(C3CCCC3)c12	12.5 (≈ 33.5 µM)	3.1 (≈ 8.3 µM)	12.5 (≈ 33.5 µM)	25 (≈ 66.9 µM)	50 (≈ 134 µM)	0.78 (≈ 2.09 µM)
COCCc1cc(C(=O)O)c(=O)n2cc(F)c(N3CC[C@H](N)C3)c(C)c12		50 (≈ 138 µM)	> 100	100 (≈ 275 µM)	> 100	12.5 (≈ 34.4 µM)
C=CCc1cc(C(=O)O)c(=O)n2cc(F)c(N3CC[C@H](N)C3)c(C)c12	1.56 (≈ 4.52 µM)	0.78 (≈ 2.26 µM)	1.56 (≈ 4.52 µM)	3.1 (≈ 8.98 µM)	> 100	1.56 (≈ 4.52 µM)

Results, then the compound that gave them:

MIC (Streptococcus pyogenes) [µg/mL]	MIC (Staphylococcus aureus [1]) [µg/mL]	MIC (Enterococcus faecium) [µg/mL]	MIC (Pseudomonas aeruginosa) [µg/mL]	MIC (Staphylococcus aureus [2]) [µg/mL]	MIC (Escherichia coli) [µg/mL]	SMILES
0.39 (≈ 1.09 µM)	0.1 (≈ 0.278 µM)	0.39 (≈ 1.09 µM)	3.1 (≈ 8.63 µM)	12.5 (≈ 34.8 µM)	0.05 (≈ 0.139 µM)	Cc1c(N2CC[C@H](N)C2)c(F)cn2c(=O)c(C(=O)O)cc(C3CCC3)c12
0.02 (≈ 0.0579 µM)	0.01 (≈ 0.029 µM)	0.02 (≈ 0.0579 µM)	0.05 (≈ 0.145 µM)	0.78 (≈ 2.26 µM)	0.01 (≈ 0.029 µM)	Cc1c(N2CC[C@H](N)C2)c(F)cn2c(=O)c(C(=O)O)cc(C3CC3)c12 [ABT-719]
1.56 (≈ 4.71 µM)	0.78 (≈ 2.35 µM)	1.56 (≈ 4.71 µM)	0.78 (≈ 2.35 µM)	> 100	0.2 (≈ 0.604 µM)	C=Cc1cc(C(=O)O)c(=O)n2cc(F)c(N3CC[C@H](N)C3)c(C)c12
0.39 (≈ 1.22 µM)	0.1 (≈ 0.313 µM)	0.39 (≈ 1.22 µM)	3.1 (≈ 9.71 µM)	12.5 (≈ 39.1 µM)	0.05 (≈ 0.157 µM)	Cc1cc(C(=O)O)c(=O)n2cc(F)c(N3CC[C@H](N)C3)c(C)c12
0.2 (≈ 0.576 µM)	0.1 (≈ 0.288 µM)	0.2 (≈ 0.576 µM)	1.56 (≈ 4.49 µM)	6.2 (≈ 17.8 µM)	0.39 (≈ 1.12 µM)	Cc1c(N2CC[C@H](N)C2)c(F)cn2c(=O)c(C(=O)O)cc(C(C)C)c12
